# Assay results published in US11986530B2, “Drug composition for parenteral administration” (THERABIOPHARMA INC., priority 2016, dated 2024).
# Legend:
# Jurkat cells = settings: in vitro; cited from earlier work
# A549 = settings: A549, in vitro; cited from earlier work
# β-glucuronidase = settings: 10 μL of 2.45 μg/mL substrate, pH 5.0, 37° C., 1 hour, n=3
# Description: In this regard, as a control, curcumin monoglucuronide was used for the examination.
# In addition, as the curcumin diglucuronide, commercially available curcumin diglucuronide (manufactured by SynInnova Laboratories Inc.) was used.
# Next, into the resultant mixture, 0.5 mL of chloroform was added, and the mixture was stirred for 1 minute with a vortex mixer, and then the stirred mixture was treated for 15 minutes by using an ultrasonic generator, and the treated mixture was fractionated into a chloroform layer and a water layer by centrifugation (10,000×g, for 5 minutes, at room temperature). Further, this fractionation process was repeated twice. After that, the chloroform layer was collected, and dried and solidified by distilling off the solvent with a vacuum centrifugal concentrator, and to the dried and solidified matter, 100 μL of 50% (v/v) methanol was added, and then the resultant mixture was centrifuged (10,000×g, for 5 minutes, at room temperature) to collect a supernatant liquid, and the collected supernatant liquid was taken as an enzyme-treated sample.
# In 2 μL of the enzyme-treated sample prepared in the above (2), free curcumin was measured by the method described in “b.
# U266 = settings: U266, in vitro; cited from earlier work
# KBM-5 = settings: KBM-5, in vitro; cited from earlier work
# [1] = Intravenous administration test: concentration of curcumin conjugates and free curcumin in plasma; format: in vivo, SD rats; settings: rat
# Description: As the test animals, 9-week old SD rats (male, with a body weight of 330 to 360 g, CHARLES RIVER LABORATORIES JAPAN, INC.) were used.
# The intravenous administration was performed as follows: a predetermined amount of the curcumin monoglucuronide prepared in Production Example 1 was dissolved into water for injection so as to be 30 mg/kg; and the obtained preparation was administered intravenously to each of the test animals (n=5) fasted for 12 hours or more before the administration via an indwelling catheter in the femoral artery of each of the test animals. In this regard, the catheter was indwelled in the femoral artery under isoflurane anesthesia on the day of administration and blood collection.
# Blood was collected via a catheter from the femoral artery of each of test animals by using a heparin-treated syringe under the restraint condition in a Ballman cage without anesthesia. In this regard, around 0.6 mL of blood was collected after each lapse of 1, 3, 5, 10, 15, 30, 60, 120, 240 and 480 minutes from the start of intravenous administration, and the collected blood was centrifuged (at 3,000 rpm, for 10 minutes, at 4° C.) to obtain the plasma.
# The concentration of each of the curcumin conjugate and free curcumin in plasma was determined by the following methods.
# Further, this fractionation process was repeated twice.
# In this regard, in the following test, a supernatant liquid prepared by using a β-glucuronidase solution was used as an enzyme-treated sample, and a supernatant liquid prepared by using distilled water in place of the β-glucuronidase solution was used as a non-enzyme-treated sample.
# By analyzing 2 μL of the enzyme-treated or non-enzyme-treated sample prepared in the above-described “a. Pretreatment” using LC-MS/MS (manufactured by Shimadzu Corporation), the concentration of each of the curcumin conjugate and free curcumin in plasma was determined.
# That is, by measuring the concentration of the curcumin contained in the enzyme-treated sample that had been obtained by the treatment with β-glucuronidase, the total concentration of curcumin in plasma was measured.
# On the other hand, by measuring the concentration of the curcumin in the non-enzyme-treated sample that had not been treated with β-glucuronidase, the concentration of free curcumin in plasma was measured.
# Further, by subtracting the concentration of free curcumin from the total concentration of curcumin, the concentration of the curcumin conjugates contained in plasma was calculated.
# In this regard, the LC-MS/MS analysis conditions were set to be a LC column of Atlantis T3 (2.1×150 mm, 3 μm, manufactured by Waters), a column temperature of 40° C., a flow rate of 0.2 mL/min, and a mobile phase of A of a 0.1% formic acid aqueous solution and B of 0.1% formic acid/acetonitrile, and the gradient elution was performed under the following conditions (Table 1). In addition, the MS analysis conditions were set to be an ionization mode of […] (ESI), Positive, a measurement mode of Multiple Reaction Monitoring (MRM), curcumin of 369.1→177.2 (m/z), and mepronil of 270→119 (m/z), and the evaluation was performed.
# [2] = Concentration of curcumin conjugates and free curcumin in tumor tissue; format: in vivo, BALB/cAnNcr j-nu/nu (homo) mice; settings: mouse, day 21
# Description: For the mice (n=8) inoculated with the 4×10^6 cancer cells (HCT116), the tumor after the lapse of 2 hours from the intravenous administration of curcumin monoglucuronide (90 mg/kg) after the lapse of 21 days from the start of inoculation was removed from each of the mice, the removed tumor was rinsed with a saline solution, and then immediately frozen in liquid nitrogen, and the frozen tumor was stored in an ultra-low temperature tank at −80° C.
# The frozen and stored tumor was thawed while cooling in ice, an adequate amount of a saline solution was added to the thawed tumor, and the thus obtained tumor was homogenized with a glass homogenizer, the concentration of each of the curcumin conjugates and free curcumin in the pulverized tumor obtained as described above were measured to examine the concentration of each of the curcumin conjugates and free curcumin contained in the tumor tissue.
# [3] = system: colorectal cancer cells derived from adult human colon HCT116; experiment: Anti-tumor effect by intravenous administration of curcumin conjugates (tumor size, HCT116 transplanted mice); format: in vivo, BALB/cAnNcr j-nu/nu (homo) mice; settings: parenteral (i.v.) administration, 30 or 90 mg/kg, versus control group
# Description: 1×10^7 or 4×10^6 colorectal cancer cells derived from adult human […] colon HCT116 (ATCC No. CCL-247) were transplanted subcutaneously into the flank of each of the test animals by using a 27 G injection needle.
# In this regard, in the control group, mice to which water for injection excluding curcumin monoglucuronide had been administered intravenously were used.
# For the tumor size, after each lapse of 0, 4, 7, 11 and 14 days from the start of administration or after each lapse of 0, 4, 7, 11, 14, 18 and 21 days from the start of administration, the length, width and height of the tumor were measured by using a vernier caliper, and the tumor size was calculated by the following equation. Tumor size (mm^3)=length×width×height×0.5 (5) Concentration of Curcumin Conjugates and Free Curcumin in Tumor Tissue
# [4] = system: human hepatocellular carcinoma cell lines (HepG2 cells); settings: cited from earlier work
# [5] = cited from earlier work
smiles,measurement,setting,value
COc1cc(/C=C/C(=O)CC(=O)/C=C/c2ccc(O[C@@H]3O[C@H](C(=O)O)[C@@H](O)[C@H](O)[C@H]3O)c(OC)c2)ccc1O[C@@H]1O[C@H](C(=O)O)[C@@H](O)[C@H](O)[C@H]1O [curcumin diglucuronide],cell growth inhibitory effect,Jurkat cells,there is no such an effect
same,cell growth inhibitory effect,A549,there is no such an effect
same,concentration of the curcumin contained in the enzyme-treated sample,β-glucuronidase,82.4 ± 0.8 ng/mL
same,cell growth inhibitory effect,U266,there is no such an effect
same,cell growth inhibitory effect,KBM-5,there is no such an effect
COc1cc(/C=C/C(=O)CC(=O)/C=C/c2ccc(O[C@@H]3O[C@H](C(=O)O)[C@@H](O)[C@H](O)[C@H]3O)c(OC)c2)ccc1O [curcumin monoglucuronide],Cmax (ng/mL) of curcumin conjugates in plasma,[1]; 30 mg/kg i.v.,160492 ± 19156 ng/mL
same,AUC 0.02-8 h (ng·h/mL) of free curcumin in plasma,[1]; 30 mg/kg i.v. of conjugate,2780 ± 962 ng·h/mL
same,Cmax (ng/mL) of free curcumin in plasma,[1]; 30 mg/kg i.v. of conjugate,10143 ± 3832 ng/mL
same,concentration of free curcumin in plasma,"[1]; 30 mg/kg i.v. of conjugate, 1 minute after administration",10143 ± 3832 ng/mL
same,concentration of free curcumin in plasma,"[1]; 30 mg/kg i.v. of conjugate, 3 minutes",7562 ± 2903 ng/mL
same,concentration of free curcumin in plasma,"[1]; 30 mg/kg i.v. of conjugate, 5 minutes",5707 ± 2539 ng/mL
same,concentration of free curcumin in plasma,"[1]; 30 mg/kg i.v. of conjugate, 10 minutes",3596 ± 1233 ng/mL
same,concentration of free curcumin in plasma,"[1]; 30 mg/kg i.v. of conjugate, 15 minutes",2764 ± 796 ng/mL
same,concentration of free curcumin in plasma,"[1]; 30 mg/kg i.v. of conjugate, 30 minutes",1605 ± 592 ng/mL
same,concentration of free curcumin in plasma,"[1]; 30 mg/kg i.v. of conjugate, 1 hour",568 ± 197 ng/mL
same,concentration of free curcumin in plasma,"[1]; 30 mg/kg i.v. of conjugate, 2 hours",117 ± 39 ng/mL
same,concentration of free curcumin in plasma,"[1]; 30 mg/kg i.v. of conjugate, 4 hours",16 ± 5 ng/mL
same,concentration of free curcumin in plasma,"[1]; 30 mg/kg i.v. of conjugate, 8 hours",6 ± 14 ng/mL
same,concentration of curcumin conjugates in plasma,"[1]; 30 mg/kg i.v., 1 minute after administration",160492 ± 19156 ng/mL
same,concentration of curcumin conjugates in plasma,"[1]; 30 mg/kg i.v., 3 minutes",77803 ± 6442 ng/mL
same,concentration of curcumin conjugates in plasma,"[1]; 30 mg/kg i.v., 5 minutes",80489 ± 7161 ng/mL
same,concentration of curcumin conjugates in plasma,"[1]; 30 mg/kg i.v., 10 minutes",46853 ± 10700 ng/mL
same,concentration of curcumin conjugates in plasma,"[1]; 30 mg/kg i.v., 15 minutes",22918 ± 5271 ng/mL
same,concentration of curcumin conjugates in plasma,"[1]; 30 mg/kg i.v., 30 minutes",10191 ± 3502 ng/mL
same,concentration of curcumin conjugates in plasma,"[1]; 30 mg/kg i.v., 1 hour",4363 ± 1354 ng/mL
same,concentration of curcumin conjugates in plasma,"[1]; 30 mg/kg i.v., 2 hours",1493 ± 371 ng/mL
same,concentration of curcumin conjugates in plasma,"[1]; 30 mg/kg i.v., 4 hours",403 ± 120 ng/mL
same,concentration of curcumin conjugates in plasma,"[1]; 30 mg/kg i.v., 8 hours",78 ± 39 ng/mL
same,concentration of the free curcumin in the tumor tissue,[2]; 2 hours after 90 mg/kg i.v. of conjugate,1464.5 ± 840.9 ng/g
same,concentration of the curcumin conjugates in the tumor tissue,[2]; 2 hours after 90 mg/kg i.v.,605.4 ± 465.5 ng/g
same,effect on tumor growth (in words),[3],significantly suppressing the tumor growth
COc1cc(/C=C/C(=O)/C=C(O)/C=C/c2ccc(O)c(OC)c2)ccc1O [curcumin],cell growth inhibitory effect,[4],found the cell growth inhibitory effect
same,cell growth inhibitory effect,Jurkat cells,has an effect of suppressing the growth of these cells
same,cell growth inhibitory effect,A549,has an effect of suppressing the growth of these cells
same,solubility in water,[5],hardly soluble in water
same,cell growth inhibitory effect,U266,has an effect of suppressing the growth of these cells
same,cell growth inhibitory effect,KBM-5,has an effect of suppressing the growth of these cells
